The values below come from patent US11274131B2, “IgM-mediated receptor clustering and cell modulation” (MAYO FOUNDATION FOR MEDICAL EDUCATION AND RESEARCH, priority 2007, dated 2022).

One assay concerns mouse DC. Nature of the assay: Cap formation / FRET on mouse DC. Type of assay: cell-based. The method, then:
DC of murine origin were stained with anti-Class II-FITC (MF/114.15.2), and either anti-CD80-PE (16.10A1)/CD86-PE (GL-1), or anti-CD11c-PE (N418). DC of human origin were stained with anti-Class II-FITC (LN3) and anti-CD80-PE (2D10.4)/CD86-PE (IT2.2). All incubations were carried out for 15 minutes at 37° C. The cells were subsequently stimulated with 10 μg/ml of control (sHIgM39) or B7-DC XAb, and were observed every 5 minutes using time lapse confocal imaging at 40.times magnification with a LSM510 Laser scanning confocal microscope having a 37° C. stage (Carl-Zeiss Inc, Oberkochen, Germany). Jurkat cells were pre stained with anti-human CD28-FITC (CD28.2) for 15 minutes, followed by addition of 10 μg/ml of MTAb control antibody sHIgM39, MTAb sHIgM22, or anti-K^b IgM (28-13-3), and were and analyzed in the same manner as the DC.
The flow cytometry approach for FRET was used as a way of quantifying molecular aggregation on the cell surface and was carried out as described previously (Block et al. (2001) J. Immunol. 167:821-826). Briefly, DC of murine origin were stained with anti-Class II APC (M5/114.15.2) and anti-CD80-PE (16.10A1)/CD86-PE(GL-1) for 15 minutes to visualize FRET between these molecules. Monitoring for FRET induced by interaction between TREM-2 and Class-II molecules was achieved by incubating the cells with the abovementioned anti-Class-II antibody and anti-TREM-2-PE (237920). DC of human origin were stained for 15 minutes with APC-anti class II (LN3) and anti-CD80-PE (2D10.4)/CD86-PE (IT2.2). In experiments involving blocking of B7-DC, both fluorophore labeled antibodies and purified anti-mouse B7-DC (TY-25) or purified anti-human B7-DC (MIH18) IgG monoclonal antibody was added at 10 μg/ml for 15 minutes. Jurkat cells were stained with anti-human Class I-PE (G46-2.6) or anti-human CD4 (RPA-T4) and anti-human CD28-APC (CD28.2) for 15 minutes. Cells were stimulated with control antibody or B7-DC XAb or purified anti-mouse class II IgM (25-9-3) (experiments involving DC) or sHIgM22 (experiments involving Jurkat cells) and aliquots from different groups were taken at different time points. After 15 minutes of incubation, the cells were washed and fixed in 2% paraformaldehyde prior to analysis by FACS using a FACSCALIBER™ (BD Biosciences, Franklin Lakes, N.J.). Data collected as log10 fluorescence were analyzed using CELLQUEST™ (BD Biosciences). The FRET signal was visualized in FL3 channel (650-670 nm LP).

In another assay the test system is NF-κB. Nature of the assay: NFκB activation assay in mouse DC. The assay is classed as cell-based. The method, then:
DC of murine or human origin were stimulated with 10 μg/ml of control antibody or the MTAb B7-DC XAb for 30 minutes, while stimulation of oligodendrocytes was achieved by addition of 10 μg/ml of MTAb sHIgM39, 04, or sHIgM22 for same period of time. All groups were fixed and permeabilized using a Cytofix/Cytoperm Kit (BD PharMingen, San Diego, Calif.) for 20 minutes on ice. Subsequently, rabbit antibody against a C terminal peptide of NF-kB (sc372) was added, incubated for 30 minutes at 4° C. and washed three times with Cytoperm Buffer. Anti-rabbit FITC was used to detect the bound sc372 antibody by incubating the cells for 30 minutes (green). Cells were washed three times before the nuclei were stained with DAPI (blue) (Sigma Aldrich). The cells were then harvested from the plate, cytospin slides were made, and cells were visualized using a LSM510 Laser scanning confocal microscope (Carl-Zeiss Inc, Oberkochen, Germany) at 40.times magnification.

A further assay concerns B16 melanoma cells. The following applies: mice injected intravenously with antibody directly or DCs pre-treated with antibody and tumor antigen; cited from earlier work.
A further assay relates to B7-DC (PD-L2). The settings on record: cited from earlier work.

Turning to “B7-DC XAb: human monoclonal IgM from a Waldenstrom's macroglobulinemia patient that binds and cross-links B7-DC on DC”, the “co-capping of CD80 and CD86 or CD11c with class II molecules” value in the assay with mouse DC (DC from CD80/CD86 double knock out and MHC class II knock out mice) is “still occurred”. Besides, the “reorganization of tagged class II, CD80, CD86 into a capped cluster” value in the assay with mouse DC (mouse DC) is given as “reorganized into a distinctly capped cluster”. In addition, the “FRET among class II, CD80 and CD86” value in the assay with mouse DC (mouse DC, within ten minutes) is on record as “strong FRET signal”. The “time to association of TREM-2 with class II molecules by FRET” value with mouse DC (mouse DC, increased by 15 minutes) was at most 5 min. Moreover, the NF-κB activation entry is on record as “absence of NF-κB activation” in the assay with NF-κB (DC from CD40 KO mice) and “activating NF-κB” with NF-κB (DC from wild type mice). Also, in the assay with NF-κB (TREM-2 KO cells), the NF-κB mobilization result was “mobilization of NF-κB”. In addition, the “protection against B16 melanoma challenge” value with B16 melanoma cells was “protected against challenge by B16 melanoma cells”. Further, the “binding to B7-DC on the surface of DC” value with B7-DC (PD-L2) was “binds”.
